± gives the standard deviation of the averaged measurements.
How the values were obtained:
Experiment in all cases: level (log10 ratio to DMSO vehicle control); higher = higher biomarker level / cell amount than vehicle control
[1] = compound: O=C(O)C(F)(F)OC(F)(F)C(F)(F)OC(F)(F)C(F)(F)OC(F)(F)C(F)(F)C(F)(F)C(F)(F)F [Perfluoro-3,6,9-trioxatridecanoic acid] (in DMSO); details: 6700 nM
Experimental: (§1)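 BioMAP Diversity Plus panel of 12 human primary cell co-culture systems (3C, 4H, LPS, SAg, BT, BF4T, BE3C, CASM3C, HDF3CGF, KF3CT, MyoF, Mphg). Compounds were added 1 h before stimulation and left for 24 h (MyoF 48 h; BT 72 h for soluble read-outs or 6 d for IgG). Biomarkers were read by ELISA, cytotoxicity by SRB, PBMC viability and proliferation by Alamar Blue. Each well value was divided by the mean of 8 DMSO control wells on the same plate and log10 transformed; duplicate blinded samples were tested at 4 concentrations.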

[2] = compound: OCCC(F)(F)C(F)(F)C(F)(F)C(F)(F)F [4:2 Fluorotelomer alcohol] (in DMSO)
Experimental: as §1

[3] = compound: O=C(O)C(F)(OC(F)(F)C(F)(OC(F)(F)C(F)(OC(F)(F)C(F)(F)C(F)(F)F)C(F)(F)F)C(F)(F)F)C(F)(F)F [Perfluoro-(2,5,8-trimethyl-3,6,9-trioxadodecanoic)acid] (in DMSO)
Experimental: as §1

[4] = compound: CN(C(=O)C(F)(F)C(F)(F)C(F)(F)F)[Si](C)(C)C [N-Methyl-N-trimethylsilylheptafluorobutyramide] (in DMSO)
Experimental: as §1

[5] = compound: O=C(O)C(F)(F)C(F)(F)C(F)(F)OC(F)(F)F [Perfluoro(4-methoxybutanoic) acid] (in DMSO)
Experimental: as §1

[6] = compound: O=S(=O)(O)C(F)(F)C(F)(F)OC(F)(F)C(F)(F)F [Perfluoro(2-ethoxyethane)sulfonic acid] (in DMSO)
Experimental: as §1

Perfluorononanoic acid = compound: O=C(O)C(F)(F)C(F)(F)C(F)(F)C(F)(F)C(F)(F)C(F)(F)C(F)(F)C(F)(F)F [Perfluorononanoic acid] (in DMSO)
Experimental: as §1

[7] = compound: C=C(C)C(=O)OCCC(F)(F)C(F)(F)C(F)(F)C(F)(F)C(F)(F)C(F)(F)C(F)(F)C(F)(F)F [8:2 Fluorotelomer methacrylate] (in DMSO)
Experimental: as §1

Test System | level (log10) [1] | level (log10) ([2]; 6700 nM) | level (log10) ([2]; 20000 nM) | level (log10) ([2]; 60000 nM) | level (log10) ([3]; 1100 nM) | level (log10) ([3]; 3300 nM) | level (log10) ([3]; 10000 nM) | level (log10) ([4]; 6700 nM) | level (log10) ([4]; 20000 nM) | level (log10) ([4]; 60000 nM) | level (log10) ([5]; 6700 nM) | level (log10) ([5]; 20000 nM) | level (log10) ([5]; 60000 nM) | level (log10) ([6]; 6700 nM) | level (log10) ([6]; 20000 nM) | level (log10) ([6]; 60000 nM) | level (log10) (Perfluorononanoic acid; 6700 nM) | level (log10) (Perfluorononanoic acid; 20000 nM) | level (log10) ([7]; 6700 nM) | level (log10) ([7]; 20000 nM)
BE3C:SRB | -0.231 ± 0.012 | -0.004 | -0.001 ± 0.0014 | -0.0005 ± 0.005 | -0.0015 ± 0.0021 | -0.0075 ± 0.0035 | 0.0105 ± 0.015 | -0.006 ± 0.0057 | -0.003 ± 0.0028 | 0 ± 0.0028 | 0.0015 ± 0.0021 | 0.0005 ± 0.0078 | 0.003 ± 0.0099 | -0.001 ± 0.0042 | 0 ± 0.0014 | 0.0055 ± 0.018 | -0.0015 ± 0.005 | -0.04 ± 0.0028 | -0.003 | 0.0025 ± 0.005
3C:CD54/ICAM-1 | 0.0005 ± 0.021 | -0.025 ± 0.018 | -0.018 ± 0.017 | 0.006 ± 0.0042 | 0.007 ± 0.02 | -0.0005 ± 0.00071 | 0.0185 ± 0.0064 | -0.0045 ± 0.022 | -0.014 ± 0.0042 | 0.015 ± 0.011 | -0.0205 ± 0.011 | -0.0275 ± 0.00071 | -0.029 ± 0.0014 | -0.0105 ± 0.028 | -0.0095 ± 0.023 | -0.01 ± 0.024 | -0.028 ± 0.0014 | -0.023 ± 0.0099 | -0.0125 ± 0.016 | -0.0095 ± 0.025
lMphg:sIL-10 | -0.0585 ± 0.00071 | -0.0195 ± 0.0078 | -0.0385 ± 0.022 | -0.025 ± 0.0099 | -0.0195 ± 0.0021 | -0.0265 ± 0.084 | -0.05 ± 0.072 | -0.006 ± 0.061 | -0.135 ± 0.1 | -0.0905 ± 0.043 | 0 ± 0.03 | -0.017 ± 0.0014 | -0.0345 ± 0.023 | 0.0105 ± 0.13 | -0.0625 ± 0.005 | -0.818 ± 0.028 | -0.0035 ± 0.026 | -0.093 ± 0.044 | -0.107 ± 0.049 | -0.116 ± 0.0021
lMphg:CD62E/E-Selectin | -0.025 ± 0.061 | -0.0075 ± 0.022 | -0.003 ± 0.013 | 0.0185 ± 0.0021 | 0.002 ± 0.0014 | -0.03 ± 0.0028 | -0.0275 ± 0.026 | -0.0115 ± 0.00071 | 0.0015 ± 0.0021 | 0.0065 ± 0.0021 | -0.0175 ± 0.047 | -0.0265 ± 0.057 | -0.0225 ± 0.054 | 0.0175 ± 0.0092 | 0.0275 ± 0.0092 | 0.0425 ± 0.0092 | 0.0125 ± 0.035 | 0.0365 ± 0.00071 | 0.0085 ± 0.015 | 0.02 ± 0.014
BE3C:MMP-1 | -0.471 ± 0.023 | -0.023 ± 0.078 | -0.023 ± 0.058 | 0.0145 ± 0.0064 | -0.0135 ± 0.00071 | -0.0175 ± 0.018 | 0.0135 ± 0.022 | -0.0015 ± 0.011 | -0.02 ± 0.0071 | 0.0295 ± 0.033 | 0.0115 ± 0.012 | -0.009 ± 0.041 | 0.029 ± 0.095 | -0.001 ± 0.0071 | 0.0055 ± 0.018 | 0.108 ± 0.069 | 0.05 ± 0.059 | 0.221 ± 0.035 | 0.0135 ± 0.012 | -0.003 ± 0.0057
CASM3C:CD141/Thrombomodulin | -0.0345 ± 0.0064 | -0.018 ± 0.075 | 0.0295 ± 0.035 | 0.0295 ± 0.043 | 0.0045 ± 0.036 | 0.018 ± 0.047 | 0.014 ± 0.027 | -0.0195 ± 0.025 | -0.027 ± 0.011 | -0.011 ± 0.0042 | 0.001 ± 0.035 | 0.007 ± 0.035 | -0.011 ± 0.044 | 0.005 ± 0.011 | -0.015 ± 0.0071 | 0.023 ± 0.044 | 0.0145 ± 0.0092 | 0.0335 ± 0.016 | -0.0195 ± 0.042 | 0.041 ± 0.082
lMphg:CCL2/MCP-1 | 0.001 ± 0.014 | -0.018 ± 0.024 | -0.0325 ± 0.0035 | -0.014 ± 0.031 | 0.0025 ± 0.012 | -0.0095 ± 0.0078 | -0.0125 ± 0.018 | -0.023 ± 0.0085 | -0.019 ± 0.0028 | 0.002 ± 0.034 | -0.0195 ± 0.026 | -0.0075 ± 0.029 | 0.0265 ± 0.00071 | -0.01 ± 0.03 | 0.005 ± 0.028 | -0.002 ± 0.0042 | 0.0105 ± 0.0064 | 0.0325 ± 0.03 | -0.032 | -0.012 ± 0.014
HDF3CGF:EGFR | -0.101 ± 0.023 | -0.0285 ± 0.028 | -0.001 ± 0.072 | 0.0275 ± 0.053 | -0.0365 ± 0.15 | -0.113 ± 0.16 | 0.025 ± 0.04 | -0.0055 ± 0.005 | -0.005 | 0.0195 ± 0.0092 | -0.002 ± 0.072 | 0.02 ± 0.055 | 0.0015 ± 0.053 | -0.035 ± 0.05 | -0.017 ± 0.042 | 0.0315 ± 0.07 | 0.0115 ± 0.057 | -0.037 ± 0.013 | -0.048 ± 0.071 | 0.0215 ± 0.091
KF3CT:TIMP-2 | -0.172 ± 0.037 | -0.0185 ± 0.14 | -0.0295 ± 0.074 | 0.004 ± 0.054 | -0.0075 ± 0.013 | -0.0105 ± 0.011 | -0.001 ± 0.017 | -0.0315 ± 0.011 | -0.0145 ± 0.0078 | 0.0095 ± 0.035 | -0.0015 ± 0.005 | 0.007 ± 0.0042 | 0.008 ± 0.0071 | 0.0035 ± 0.0092 | 0.01 | 0.0155 ± 0.005 | -0.074 ± 0.027 | -0.002 ± 0.045 | -0.018 ± 0.014 | -0.0335 ± 0.033
MyoF:alpha-SM Actin | -0.24 ± 0.025 | -0.021 | -0.0225 ± 0.0035 | -0.0345 ± 0.018 | -0.002 ± 0.027 | -0.0105 ± 0.00071 | 0.002 ± 0.062 | 0.0035 ± 0.0021 | -0.01 ± 0.0014 | 0.0005 ± 0.021 | 0.025 ± 0.028 | -0.0045 ± 0.028 | -0.002 ± 0.0057 | 0.006 ± 0.025 | 0.0075 ± 0.0078 | -0.017 ± 0.0028 | -0.0165 ± 0.028 | -0.0645 ± 0.042 | -0.009 ± 0.081 | 0.0025 ± 0.079
lMphg:CD40 | -0.0205 ± 0.013 | 0.0015 ± 0.013 | 0.016 ± 0.0085 | 0.0025 ± 0.015 | 0.019 ± 0.057 | 0.026 ± 0.076 | -0.0195 ± 0.036 | -0.008 ± 0.027 | -0.016 | -0.0145 ± 0.022 | -0.014 ± 0.024 | -0.027 ± 0.033 | -0.0375 ± 0.03 | -0.018 ± 0.02 | -0.013 ± 0.037 | -0.0215 ± 0.025 | 0.002 ± 0.013 | -0.03 ± 0.03 | -0.0215 ± 0.029 | -0.05 ± 0.052
KF3CT:uPA | 0.027 ± 0.0057 | -0.0105 ± 0.039 | -0.0185 ± 0.0021 | 0.017 ± 0.027 | 0.01 | 0.0045 ± 0.021 | 0.0075 ± 0.005 | -0.0045 ± 0.019 | 0.0135 ± 0.005 | 0.0115 ± 0.0078 | -0.0065 ± 0.005 | -0.0175 ± 0.019 | -0.0055 ± 0.011 | 0.013 ± 0.011 | 0.006 ± 0.021 | 0.0055 ± 0.022 | 0.0005 ± 0.018 | 0.009 ± 0.011 | -0.0095 ± 0.00071 | -0.0205 ± 0.012
3C:CD106/VCAM-1 | -0.0335 ± 0.023 | -0.0205 ± 0.016 | -0.011 ± 0.011 | -0.0095 ± 0.011 | -0.0075 ± 0.022 | -0.0055 ± 0.028 | -0.0005 ± 0.028 | -0.0245 ± 0.0021 | -0.01 ± 0.016 | 0.0025 ± 0.012 | -0.007 ± 0.0071 | -0.0145 ± 0.035 | -0.0265 ± 0.0078 | 0.008 ± 0.033 | 0.002 ± 0.0071 | 0 ± 0.0085 | -0.0205 ± 0.016 | -0.0195 ± 0.023 | -0.0205 ± 0.019 | -0.0445 ± 0.015

From the supplement of paper PMC10331698
